Assay: Identification of metabolites of PG in vivo (plasma, bile, urine, feces)
Set-up: species or system rat
Conditions: rats
Procedure: Nine Sprague–Dawley (SD) male rats (200 ± 20 g) were purchased from Beijing Vital River Laboratory Animal Technology Co., Ltd. (license number: SCXK (Beijing) 2016-0006).
The plasma samples were the same as in the pharmacokinetic experiment; PGI (9 mg kg^−1) was injected into the tail vein of three rats to collect the bile samples for 0–6 h, and saline (9 mg kg^−1) was injected into the tail vein of three rats to collect the normal bile samples. PGI (9 mg kg^−1) was injected into the tail vein of three rats to collect urine (0–4 h) samples and feces (0–6 h) samples after collecting the blank urine and feces samples. All samples were stored at −80℃ for further analysis.
(§1) Plasma samples: 40 μl of plasma samples at different time points were taken and mixed together in a 2 ml centrifuge tube; 1,280 μl of ice acetonitrile was added. The mixture was vortexed for 3 min and centrifuged at 13,200 × g under 4℃ for 10 min. The supernatant was transferred to another centrifuge tube and dried with nitrogen, re-dissolved with 60 μl of 80% methanol-H2O (v/v). For further LC-MS analysis, 3 μl of the supernatant was injected.
Bile samples: 100 μl of bile sample was taken using a 0.22 μm filter, the mixture was vortexed for 3 min, and centrifuged at 13200 × g under 4℃ for 10 min. For further LC-MS analysis, 3 μl of the supernatant was injected.
Fecal samples: 100 mg of the sample was weighed into a 1.5 ml centrifuge tube, 400 μl of ice acetonitrile was added, and the mixture was vortexed for 3 min and centrifuged at 13,200 × g under 4℃ for 10 min. For further LC-MS analysis, 3 μl of the supernatant was injected.
as §1, with “Urine sample: 600” for “Plasma samples: 40”, “urine sample was” for “plasma samples at different time points were”, “taken out,” for “taken”, “2,400” for “mixed together in a 2 ml centrifuge tube; 1,280”
An ultrahigh-performance liquid chromatography-mass spectrometer (Waters, United States) was performed for separation and detection. A Waters ACQUITY UPLC HSS T3 column (2.1 × 100 mm, 1.8 μm) was employed at 30℃ with a flow rate of 0.3 ml min^−1. The mobile phase consisted of acetonitrile (B) and water containing 0.1% FA ([…]). The following linear gradient was used: 0–0.5 min: 5–7% B; 0.5–2.5 min: 7–8.8% B; 2.5–5.5 min: 8.8–16.9% B; 5.5–14 min: 16.9–24.7% B; 14–23 min: 24.7–52% B; and 23–30 min: 52–95% B.
DDA was performed using the Q Exactive™ hybrid quadrupole–Orbitrap mass spectrometer both in negative and positive mode. […]

OC[C@H]1O[C@@H](Oc2cc(/C=C/c3cc(O)cc(O)c3)ccc2O)[C@H](O)[C@@H](O)[C@@H]1O [PG, Piceatannol-3′-O-β-D-glucopyranoside]
metabolites in fecal samples: No metabolites were detected
metabolic route of PG in vivo (PGI 9 mg kg−1 tail vein): mainly undergoes a phase II binding reaction mediated by UGT and SULT
number of metabolites identified in bile (PGI 9 mg kg−1 tail vein, bile 0–6 h, all phase II): five
number of metabolites identified in plasma (PGI 9 mg kg−1 tail vein, all phase II metabolites): four

— publication PMC9344054, “Studies on Chemical Characterization of Ginkgo Amillaria Oral Solution and Its Drug–Drug Interaction With Piceatannol 3′-O-β-D-Glucopyranoside for Injection” (Frontiers in Pharmacology, 2022)
